{"source": "patent US10188647B2", "about": "“Combination therapy using P53 activator and c-Met inhibitor” (Samsung Electronics Co., Ltd., priority 2013, dated 2019)", "molecules": {"B1": {"name": "scFv of huAbF46: scFv with structure VH-linker-VL from heavy and light chain variable regions of huAbF46 antibody (protein)", "scFv": "EVQLVESGGGLVQPGGSLRLSCAASGFTFTDYYMSWVRQAPGKGLEWLGFIRNKANGYTTEYSASVKGRFTISRDNSKNTLYLQMNSLRAEDTAVYYCARDNWFAYWGQGTLVTVSSGLGGLGGGGSGGGGSGGSSGVGSDIQMTQSPSSLSASVGDRVTITCKSSQSLLASGNQNNYLAWHQQKPGKAPKMLIIWASTRVSGVPSRFSGSGSGTDFTLTISSLQPEDFATYYCQQSYSAPLTFGQGTKVEIKR"}, "B2": {"name": "L3-1Y: anti c-Met antibody: huAbF46-H4-A1 heavy chain variable region, human IgG2 hinge and constant region, kappa light chain (antibody)", "heavy": "EVQLVESGGGLVQPGGSLRLSCAASGFTFTDYYMSWVRQAPGKGLEWLGFIRNKANGYTTEYSASVKGRFTISRDNSKNTLYLQMNSLRAEDTAVYYCARDNWFAYWGQGTLVTVSSASTKGPSVFPLAPCSRSTSESTAALGCLVKDYFPEPVTVSWNSGALTSGVHTFPAVLQSSGLYSLSSVVTVPSSNFGTQTYTCNVDHKPSNTKVDKTVERKCCVECPPCPAPPVAGPSVFLFPPKPKDTLMISRTPEVTCVVVDVSHEDPEVQFNWYVDGVEVHNAKTKPREEQFNSTFRVVSVLTVVHQDWLNGKEYKCKVSNKGLPAPIEKTISKTKGQPREPQVYTLPPSREEMTKNQVSLTCLVKGFYPSDIAVEWESNGQPENNYKTTPPMLDSDGSFFLYSKLTVDKSRWQQGNVFSCSVMHEALHNHYTQKSLSLSPGK", "light": "DIQMTQSPSSLSASVGDRVTITCKSSQSLLASGNQNNYLAWYQQKPGKAPKMLIIWASTRVSGVPSRFSGSGSGTDFTLTISSLQPEDFATYYCQQSYSRPYTFGQGTKVEIKRTVAAPSVFIFPPSDEQLKSGTASVVCLLNNFYPREAKVQWKVDNALQSGNSQESVTEQDSKDSTYSLSSTLTLSKADYEKHKVYACEVTHQGLSSPVTKSFNRGEC"}}, "key": {"[1]": {"tested_on": "MKN45 stomach cancer cell line", "experiment": "Western blot of p53 and p21 expression/accumulation, MKN45 cells", "assay_type": "cell-based", "settings": "24 hours", "method": "(§1) The activation of cell signal transduction system after the co-administration of L3-1Y antibody that is a c-Met antibody prepared in the above reference example and Nutlin-3a that is a p53 activator, was tested in MKN45 stomach cancer cell line and Caki-1 cell line.\n(§2) Particularly, RPMI1640 (for MKN45 cells) containing 10% FBS, and DMEM (for Caki-1 cells) media (GIBCO) were added to a 96-well plate, to which MKN45 cell line (ATCC) and Caki-1 cell line (both of them were all obtained from ATCC) were each seeded in an amount of […], and then incubated overnight at 37° C. On the next day, the sole treatment of L3-1Y antibody at a concentration of 0.1 ug/ml (MKN45 cells) and 5 ug/ml (Caki-1 cells), […], and the combined treatment of L3-1Y antibody at 0.1 ug/ml (MKN45 cells) and 5 ug/ml ([…], respectively) were administered. After 24 hours post-administration, c-Met inhibition and p53 activation were analyzed by western blot."}, "[2]": {"tested_on": "Caki-1 cell line", "set-up": "expression of p21: dose or concentration left out as unconfirmed", "settings": "Caki-1 cells, 24 hours, western blot", "method": "as §1, §2"}, "[3]": {"tested_on": "MKN45 stomach cancer cell line", "experiment": "MKN45 cell proliferation after sole or combined treatment (CTG)", "assay_type": "cell-based", "settings": "72 hours", "method": "The effects obtained by the co-administration of L3-1Y antibody that is a c-Met antibody prepared in the above reference example and Nutlin-3a that is a p53 activator, were tested in MKN45 stomach cancer cell line.\nIn particular, RPMI1640 media (GIBCO) containing 10% FBS were added to a 96-well plate, to which MKN45 stomach cancer cell line (ATCC) was seeded at 10,000 cells/well, and then incubated overnight at 37° C. On the next day, the sole treatment of 0.1 ug/ml of L3-1Y antibody, the sole treatment of 0.5 uM of Nutlin-3a (#N6287, sigma) which is a p53 activator, and the combined treatment of 0.1 ug/ml of L3-1Y antibody and 0.5 uM (micromole) of Nutlin-3a were administered to the incubated cells. After 72 hours post-administration, a CTG solution was added to the wells at 100 ul per well and after 30 min., and cell numbers were counted to measure a cell proliferation level."}, "[4]": {"molecular_target": "c-Met (Homo sapiens, UniProt P08581)", "sequence (P08581 25-1390)": "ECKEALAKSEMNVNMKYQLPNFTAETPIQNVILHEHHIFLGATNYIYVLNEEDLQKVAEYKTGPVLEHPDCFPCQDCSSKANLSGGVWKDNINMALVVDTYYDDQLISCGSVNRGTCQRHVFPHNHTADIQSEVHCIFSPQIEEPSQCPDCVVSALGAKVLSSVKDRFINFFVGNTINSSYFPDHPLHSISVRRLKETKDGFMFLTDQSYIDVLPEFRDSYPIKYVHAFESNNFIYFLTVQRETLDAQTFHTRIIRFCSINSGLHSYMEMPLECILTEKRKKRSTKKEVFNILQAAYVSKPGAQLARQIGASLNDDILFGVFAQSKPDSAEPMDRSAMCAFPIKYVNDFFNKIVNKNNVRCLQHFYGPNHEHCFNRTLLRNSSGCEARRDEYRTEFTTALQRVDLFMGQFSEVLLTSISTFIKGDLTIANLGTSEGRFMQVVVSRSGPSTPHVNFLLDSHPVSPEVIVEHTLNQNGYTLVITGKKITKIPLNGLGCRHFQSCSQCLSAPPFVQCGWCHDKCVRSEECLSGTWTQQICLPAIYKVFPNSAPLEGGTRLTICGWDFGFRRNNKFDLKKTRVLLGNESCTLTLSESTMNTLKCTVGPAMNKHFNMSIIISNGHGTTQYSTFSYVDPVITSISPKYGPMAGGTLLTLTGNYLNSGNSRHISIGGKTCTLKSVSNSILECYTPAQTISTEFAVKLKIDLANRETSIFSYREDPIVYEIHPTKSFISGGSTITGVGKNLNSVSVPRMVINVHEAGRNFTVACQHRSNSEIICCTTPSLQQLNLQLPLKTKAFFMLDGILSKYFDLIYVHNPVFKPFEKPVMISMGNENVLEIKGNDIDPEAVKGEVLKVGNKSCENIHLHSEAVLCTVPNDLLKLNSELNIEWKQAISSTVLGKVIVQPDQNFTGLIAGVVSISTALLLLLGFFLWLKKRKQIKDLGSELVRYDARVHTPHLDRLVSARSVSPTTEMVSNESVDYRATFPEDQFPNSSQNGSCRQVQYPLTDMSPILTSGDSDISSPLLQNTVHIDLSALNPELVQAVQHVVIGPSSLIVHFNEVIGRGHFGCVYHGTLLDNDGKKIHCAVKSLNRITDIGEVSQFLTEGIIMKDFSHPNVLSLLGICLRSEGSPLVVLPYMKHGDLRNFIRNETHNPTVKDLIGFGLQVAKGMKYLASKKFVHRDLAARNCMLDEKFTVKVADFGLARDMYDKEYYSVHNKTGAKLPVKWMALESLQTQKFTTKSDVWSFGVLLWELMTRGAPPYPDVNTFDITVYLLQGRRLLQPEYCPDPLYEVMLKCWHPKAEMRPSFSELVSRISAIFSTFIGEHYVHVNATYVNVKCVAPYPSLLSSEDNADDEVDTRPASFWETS", "experiment": "Specificity of expressed scFv to c-Met", "assay_type": "binding", "settings": "expressed scFv product"}, "[5]": {"tested_on": "Caki-1 cell line", "experiment": "Caki-1 cell proliferation (BrdU assay), agonism of L3-1Y antibody", "assay_type": "cell-based", "settings": "sole treatment 10 ug/ml L3-1Y, serum-free, 24 hours", "method": "The effects obtained by the co-administration of L3-1Y antibody that is a c-Met antibody prepared in the above reference example and Nutlin-3a that is a p53 activator, were tested in Caki-1 cell line.\nParticularly, DMEM media (GIBCO) containing 10% FBS were added to a 96-well plate, to which Caki-1 cell line (ATCC) was seeded at 5,000 cells/well, and then incubated overnight at 37° C. On the next day, the media was replaced by serum-free media, which were then incubated for 24 hours. The sole treatment of 10 ug/ml of L3-1Y antibody, and the combined treatment of 0.1 ug/ml of L3-1Y antibody and 5 uM of Nutlin-3a were administered to the incubated cells. After 24 hours post-administration, a BrdU assay was conducted to measure the cell proliferation level."}, "[6]": {"settings": "sole treatment 0.5 uM Nutlin-3a"}, "[7]": {"settings": "sole treatment 0.5 mM Nutlin-3a"}}, "data": [{"molecule": "COc1ccc(C2=N[C@@H](c3ccc(Cl)cc3)[C@@H](c3ccc(Cl)cc3)N2C(=O)N2CCNC(=O)C2)c(OC(C)C)c1", "note": "[Nutlin-3a]", "values": [{"measurement": "expression of p21", "setting": "[1]; [6]", "value": "accumulated"}, {"measurement": "p53 accumulation", "setting": "[1]; [7]", "value": "accumulated"}, {"measurement": "p53 accumulation", "setting": "[2]; [7]", "value": "accumulated"}, {"measurement": "expression of p21", "setting": "[2]; sole treatment", "value": "accumulated"}, {"measurement": "suppressive effects of cell proliferation", "setting": "[3]; [6]", "value": "did not show suppressive effects of cell proliferation"}]}, {"molecule": "B1", "values": [{"measurement": "specificity to c-Met", "setting": "[4]", "value": "exhibit specificity to c-Met"}]}, {"molecule": "B2", "values": [{"measurement": "suppressive effects of cell proliferation", "setting": "[3]; sole treatment 0.1 ug/ml L3-1Y", "value": "about 10%"}, {"measurement": "promoted cell proliferation as compared to the media-only control", "setting": "[5]", "value": "≥ 20", "unit": "%"}]}]}
